Results as given in PMC10948969 (Nature cancer, 2023).

What was measured:
[1] = system: MYC-Tp53 tumor organoid allografts; assay: MYC-Tp53 tumor organoid allografts in C57BL/6 mice; format: in vivo, mouse; conditions: 30 mg kg−1 daily oral gavage, treatment from 100 mm3
[2] = system: WNT reporter (TOP-GFP); assay: TOP-GFP Wnt reporter in MYC-CTNNB1 organoids; format: cell-based, mouse; conditions: 24 h after treatment
[3] = system: CTNNB1-mutated HCC (MYC-lucOS; CTNNB1); assay: Hydrodynamic tail-vein; format: in vivo, mouse; conditions: 5 d on and 2 d off
[4] = Single-dose oral pharmacokinetics in BALB/c mice; format: in vivo, mouse
[5] = molecular target: p38 (MAPK14) (Homo sapiens, UniProt Q16539); assay: In vitro kinase assay with EZH2 T367 peptide, p38; format: biochemical; conditions: inhibitor 1 μM, EZH2 peptide 1 μM
Sequence of p38 (MAPK14) (Q16539 whole entry): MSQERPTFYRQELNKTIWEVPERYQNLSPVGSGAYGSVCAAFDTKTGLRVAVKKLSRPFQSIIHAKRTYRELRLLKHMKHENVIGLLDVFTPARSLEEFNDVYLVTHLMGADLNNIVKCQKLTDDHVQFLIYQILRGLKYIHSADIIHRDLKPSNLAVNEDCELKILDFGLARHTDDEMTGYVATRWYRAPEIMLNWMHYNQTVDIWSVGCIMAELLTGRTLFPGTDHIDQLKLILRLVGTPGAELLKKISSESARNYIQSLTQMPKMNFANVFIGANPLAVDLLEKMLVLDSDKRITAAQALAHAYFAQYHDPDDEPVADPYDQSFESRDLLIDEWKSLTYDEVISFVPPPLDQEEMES

[6] = system: HEPG2 cells; assay: Drug toxicity; format: cell-based, human; conditions: 3 d
[7] = system: MYC-CTNNB1 tumor organoids; assay: Drug toxicity; format: cell-based, mouse
[8] = molecular target: ERK1 (Homo sapiens, UniProt P27361); assay: In vitro kinase assay with EZH2 T367 peptide, ERK; format: biochemical; conditions: inhibitor 1 μM, EZH2 peptide 1 μM
Sequence of ERK1 (P27361 whole entry): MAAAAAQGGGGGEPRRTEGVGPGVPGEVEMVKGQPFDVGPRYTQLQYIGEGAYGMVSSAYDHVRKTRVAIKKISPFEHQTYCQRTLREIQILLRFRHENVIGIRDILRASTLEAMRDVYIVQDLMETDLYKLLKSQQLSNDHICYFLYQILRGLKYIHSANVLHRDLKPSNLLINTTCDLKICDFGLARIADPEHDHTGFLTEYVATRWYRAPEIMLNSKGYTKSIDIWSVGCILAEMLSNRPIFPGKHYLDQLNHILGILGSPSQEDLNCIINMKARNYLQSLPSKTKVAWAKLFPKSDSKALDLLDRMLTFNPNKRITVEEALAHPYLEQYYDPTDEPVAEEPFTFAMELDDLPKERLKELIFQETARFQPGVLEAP

[9] = In vivo dose escalation / tolerability in mice
[10] = system: MYC-CTNNB1 tumor organoid allografts; assay: MYC-CTNNB1 tumor organoid allografts in C57BL/6 mice; format: in vivo, mouse; conditions: 30 mg kg−1 daily oral gavage, treatment from 100 mm3
[11] = system: KIT, PDGFRα/β, VEGFR1/2, RET and FLT3; assay: Kinome profiling; format: binding; conditions: in vitro kinome selectivity profile

## COc1cc2nccc(Oc3ccc(NC(=O)NC4CC4)c(Cl)c3)c2cc1C(N)=O [lenvatinib]
[1]
  anti-tumor activity: measurable anti-tumor activity

## Cc1cc(C)c(CNC(=O)c2cc(-c3ccc(N4CCN(CCNC(=O)CC56CC7CC(CC(C7)C5)C6)CC4)nc3)cc3c2cnn3C(C)C)c(=O)[nH]1 [MS1943]
[2]
  WNT-driven GFP reporter expression: neither small molecule (MS1943 or GSK343) dampened the expression of the WNT reporter

## CCCc1cc(C)[nH]c(=O)c1CNC(=O)c1cc(-c2ccnc(N3CCN(C)CC3)c2)cc2c1cnn2C(C)C [GSK343]
[2]
  WNT-driven GFP reporter expression: neither small molecule (MS1943 or GSK343) dampened the expression of the WNT reporter

## CNC(=O)c1cc(Oc2ccc(NC(=O)Nc3ccc(Cl)c(C(F)(F)F)c3)c(F)c2)ccn1 [regorafenib]
[1]
  anti-tumor activity: measurable anti-tumor activity

## CNC(=O)c1cc(Oc2ccc(NC(=O)Nc3ccc(Cl)c(C(F)(F)F)c3)cc2)ccn1 [sorafenib, reference compound]
[3]; 30 mg kg−1 oral, started 7 d post-injection
  survival benefit: 7.5 days
[1]
  anti-tumor activity: measurable anti-tumor activity
[4]; female, BALB/c, mouse, plasma, po, 20 mg/kg
  half-life: 8 h

## CNC(=O)c1cc(Oc2ccc(NC(=O)Nc3ccc(C(F)(F)C(F)(F)F)cc3)c(F)c2)ccn1 [WNTinib]
[5]
  inhibition of EZH2 Thr367 peptide phosphorylation by p38: did not inhibit this phosphorylation in vitro
[6]; HEPG2 transduced with gatekeeper mutants vs parental
  efficacy with drug-resistant p38α (Thr106Met) or BRAF (Thr529Asn): largely unchanged
[6]; constitutively active MEK1 (Ser218Asp, Ser222Asp) in HEPG2
  activity under MEK overexpression: effectively eliminated WNTinib activity
[6]; constitutively active MKK6 (Ser207Glu, Thr211Glu) vs parental HEPG2
  shift of IC50 by MKK6 overexpression: ~ 30 fold
[6]; doxycycline-inducible activated KIT double mutant in HEPG2
  efficacy under activated KIT overexpression: greatly reduced
[7]; read-out: IC50 in MYC-CTNNB1 organoids, without cKit knockdown, treated 3 d
  IC50: < 1 µM
[7]; titration of BRAF inhibitor dabrafenib, 3 d, CI > 1 = antagonized
  combination index (CI) with dabrafenib: > 1
[7]; titration of KIT ligand SCF, 3 d, CI >1 = antagonized
  combination index (CI) with SCF: > 1
[7]; titration of p38α/β inhibitor SB202190, 3 d, CI > 1 = antagonized
  combination index (CI) with SB202190: > 1
[8]
  inhibition of EZH2 Thr367 peptide phosphorylation by ERK: did not inhibit this phosphorylation in vitro
[2]
  WNT-driven GFP reporter expression: the only compound to downregulate WNT-driven GFP expression
[9]; mice treated for >3 weeks, consistent with on-target KIT inhibition
  phenotype on extended treatment: fur depigmentation
[9]; three mouse strains, dosed daily for 2 weeks, oral dose escalation
  signs of sickness or toxicity: No mice showed signs of sickness, or evident toxicity in the liver, intestine or kidney
[10]
  tumor regression: induced significant tumor regression
[3]; 20 mg kg−1 oral
  survival of remaining animals after the final dosing: > 300 days
[3]; 20 mg kg−1 oral, started 7 d post-injection
  fraction of treatment arm that succumbed to death: 40%
[1]
  anti-tumor activity: inactive
[4]; 24 h after oral dosing, 20 mg kg−1, BALB/c mice
  plasma concentration: 7 µM
[4]; BALB/c mice, oral, 20 mg kg−1
  half-life: 9.38 h
[4]; oral, 20 mg kg−1
  detectable quantities of drug in blood plasma post-dosing: up to 72 h
[11]
  inhibition of proposed key targets of sorafenib and regorafenib: maintained potent inhibition
